In US8044055B2, “2-phenyl-6-aminocarbonyl-pyrimidine derivatives and their use as P2Y12 receptor” (Actelion Pharmaceuticals Ltd., priority 2006, dated 2011) one finds IC50 data, which are given here for 7 molecules.

Structures can show the parent of a compound that is named as a salt.

This assay deals with T1, human P2Y12 receptor (Homo sapiens, UniProt Q9H244).
T1 construct: expressed in transfected cells; host or cells: Chinese Hamster Ovary (CHO) cells
Kind of assay: P2Y12 receptor binding assay. To be noted: CHO cells with recombinant expression of the human P2Y12 receptor; tritium-labeled 2-methyl-S-ADP; 2 hours at room temperature. Here is the method:
Chinese Hamster Ovary (CHO) cells with recombinant expression of the human P2Y12 receptor were cultured in 24 well cell-culture plates. Cells were washed three times with binding buffer (50 mM Tris pH 7.4, 100 mM NaCl, 1 mM EDTA, 0.5% BSA). The cells were then incubated with 0.5 ml per well binding buffer containing tritium-labeled 2-methyl-thio-adenosine 5′-diphosphate (2-methyl-S-ADP) (between 100'000 and 300'000 dpm per well) and various concentrations of test compounds. After incubation at room temperature for 2 hours, cells were washed three times with binding buffer. Then, cells were solubilized by addition of 0.5 ml solubilization buffer (SDS, NaOH, EDTA). The content of each well was then transferred into beta-counter vials and 2.0 ml of Ultima Gold Scintillation liquid was added.

T1 sequence (Q9H244 whole entry): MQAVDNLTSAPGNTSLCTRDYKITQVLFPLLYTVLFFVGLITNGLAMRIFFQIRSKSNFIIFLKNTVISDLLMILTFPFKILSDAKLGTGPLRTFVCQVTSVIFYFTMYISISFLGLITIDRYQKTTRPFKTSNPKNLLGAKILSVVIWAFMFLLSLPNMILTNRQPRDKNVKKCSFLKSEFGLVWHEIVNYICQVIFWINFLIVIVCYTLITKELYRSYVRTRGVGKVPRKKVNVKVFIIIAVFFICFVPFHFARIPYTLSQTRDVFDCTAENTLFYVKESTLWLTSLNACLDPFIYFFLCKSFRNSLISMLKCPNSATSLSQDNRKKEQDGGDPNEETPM

As a reminder, the IC50 is the concentration needed to halve the response being measured. As for `CCOC(=O)N1CCN(C(=O)[C@H](CCC(=O)O)NC(=O)c2cc(OCCOCCOC)nc(-c3ccccc3)n2)CC1` [Example 1, 4-[(S)-4-carboxy-2-({6-[2-(2-methoxy-ethoxy)-ethoxy]-2-phenyl-pyrimidine-4-carbonyl}-amino)-butyryl]-piperazine-1-carboxylic acid ethyl ester], the IC50 is 108 nM.
`CCOC(=O)N1CCN(C(=O)[C@H](CCC(=O)O)NC(=O)c2cc(OC3CCCN(C)C3)nc(-c3ccccc3)n2)CC1` (stereo partly drawn) [Example 6, 4-((S)-4-carboxy-2-{[6-(1-methyl-piperidin-3-yloxy)-2-phenyl-pyrimidine-4-carbonyl]-amino}-butyryl)-piperazine-1-carboxylic acid ethyl ester trifluoroacetate salt]: the IC50 was found to be 238 nM.
With `CCCCOC(=O)N1CCN(C(=O)[C@H](CCC(=O)OC(C)(C)C)NC(=O)c2cc(OC3CCNCC3)nc(-c3ccccc3)n2)CC1` [Example 38, 4-((S)-4-tert-butoxycarbonyl-2-{[2-phenyl-6-(piperidin-4-yloxy)-pyrimidine-4-carbonyl]-amino}-butyryl)-piperazine-1-carboxylic acid butyl ester] the figure was 13000 nM; with `CCOC(=O)N1CCN(C(=O)[C@H](CCC(=O)O)NC(=O)c2cc(OC3CCOC3)nc(-c3ccccc3)n2)C(C)C1` (stereo partly drawn) [Example 10, ((S)-4-carboxy-2-{[2-phenyl-6-(tetrahydro-furan-3-yloxy)-pyrimidine-4-carbonyl]-amino}-butyryl)-3-methyl-piperazine-1-carboxylic acid ethyl ester], 126 nM.
For the molecule `CCOC(=O)N1CCN(C(=O)[C@H](CCc2nnn[nH]2)NC(=O)c2cc(OC3CCOC3)nc(-c3ccccc3)n2)CC1` (stereo partly drawn) [Example 17, 4-[(S)-2-{[2-phenyl-6-(tetrahydro-furan-3-yloxy)-pyrimidine-4-carbonyl]-amino}-4-(1H-tetrazol-5-yl)-butyryl]-piperazine-1-carboxylic acid ethyl ester], the IC50 was 94 nM.
Next, `CCCCOC(=O)N1CCN(C(=O)[C@H](CCC(=O)O)NC(=O)c2cc(OC3CCNCC3)nc(-c3ccccc3)n2)CC1` [Example 37, 4-((S)-4-carboxy-2-{[2-phenyl-6-(piperidin-4-yloxy)-pyrimidine-4-carbonyl]-amino}-butyryl)-piperazine-1-carboxylic acid butyl ester]: 71 nM; `CCCCOC(=O)N1CCN(C(=O)[C@H](CCC(=O)OC(C)(C)C)NC(=O)c2cc(O[C@@H]3CCOC3)nc(-c3ccccc3)n2)CC1` [Example 36, 4-[(S)-4-tert-butoxycarbonyl-2-({2-phenyl-6-[(R)-(tetrahydro-furan-3-yl)oxy]-pyrimidine-4-carbonyl}-amino)-butyryl]-piperazine-1-carboxylic acid butyl ester]: 448 nM.
